{"source": "patent US20130252983A1", "about": "“ACTIVATING PHOSPHORYLATION SITE ON GLUTAMINASE C” (CORNELL UNIVERSITY, priority 2010, published 2013)", "key": {"[1]": {"test_system": "NIH 3T3 cells expressing oncogenic Dbl", "test": "Dbl-induced cellular transformation (focus formation, growth in low serum, soft agar)", "type": "cell-based, mouse", "settings": "focus formation / growth in low serum", "procedure": "FIGS. 1A-E illustrate that the small molecule 968 inhibits cellular transformation. […] Cells were fixed and stained with crystal violet for counting of foci. Right: 968 was serially diluted (10, 5, 2.5, and 1.25 μM) and evaluated for its ability to inhibit focus formation. […] After 6 days, the cells were counted. 100% represents the number of Dbl-transformed cells counted in the absence of 968 (27.5×10^4 cells). Data represent the average of 3 experiments (±s.d.). […] At the indicated times, the cells were counted. Data represent the average of 3 experiments (±s.d.).\nFIGS. 2A-G illustrate effects of 968 on the transforming activity of constitutively active Rho GTPases and human breast cancer cells. […] Cells were scored after 14 days and plotted as the percentage of the total number of colonies greater than 50 μm in diameter. Data represent the average of 3 experiments (±s.d.). […] Data represent the average of 3 experiments (±s.d.). […] Data represent the average of 3 experiments (±s.d.). […] After 24 hours at 37° C., the migratory cells were fixed, stained with GIEMSA, and counted. Data represent the average of 3 experiments (±s.d.). […] Data represent the average of 3 experiments (±s.d.). […] Data represent the average of 3 experiments (±s.d.). […] Data represent the average of 3 experiments (±s.d.).\nFIGS. 5A-C illustrate comparative abilities of 968 and other benzo[a]phenanthridinones to inhibit the transforming activity of oncogenic Dbl and H-Ras. […] Histograms show the relative levels of Dbl-induced focus formation for the different treatments, compared to Dbl-induced focus formation measured in the presence of DMSO (i.e. solvent control). Data represent the average of 3 experiments (mean±s.d.). […] Histograms show the relative levels of Ras(G12V)-induced focus formation measured for the different treatments, compared to Ras(G12V)-induced focus formation measured in the presence of DMSO (solvent control). Data represent the average of 3 experiments (mean±s.d.). FIG. 5C NIH 3T3 cells stably expressing H-Ras(G12V) that were cultured in DMEM supplemented with 1% calf serum, with the indicated amounts of 968. After 6 days, cells are trypsinized and counted. 100% represents the number of cells counted in the absence of 968, i.e. 26×10^4 cells. Data represent the average of 3 experiments (mean±s.d.)."}, "[2]": {"target": "T1, mouse GAC (E. coli-expressed mouse ortholog of human GAC) (Mus musculus, UniProt D3Z7P3)", "T1 construct": "A plasmid encoding mouse GAC (residues 128-603) was cloned into the pET28a vector; His (N, cleaved yes); made in house; host or cells: E. coli (pET28a)", "T1 sequence (D3Z7P3 128-603 isoform D3Z7P3-2)": "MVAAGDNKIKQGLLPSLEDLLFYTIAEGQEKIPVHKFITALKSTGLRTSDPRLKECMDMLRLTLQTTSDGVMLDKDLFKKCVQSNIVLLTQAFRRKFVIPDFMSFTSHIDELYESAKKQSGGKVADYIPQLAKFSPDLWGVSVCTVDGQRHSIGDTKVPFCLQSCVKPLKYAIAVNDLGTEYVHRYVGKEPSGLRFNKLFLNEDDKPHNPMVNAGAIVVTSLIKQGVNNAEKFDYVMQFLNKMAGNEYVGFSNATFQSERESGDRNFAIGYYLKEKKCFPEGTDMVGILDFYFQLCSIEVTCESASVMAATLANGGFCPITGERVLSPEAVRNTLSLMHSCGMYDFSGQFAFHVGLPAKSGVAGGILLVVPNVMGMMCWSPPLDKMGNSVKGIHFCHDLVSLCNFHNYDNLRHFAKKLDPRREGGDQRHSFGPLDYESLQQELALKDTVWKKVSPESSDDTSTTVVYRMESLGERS", "test": "Recombinant glutaminase activity assay", "type": "biochemical", "procedure": "100%=620 moles of glutamine hydrolyzed per minute per mole of enzyme. Data represent the average of 3 experiments (±s.d.). […] Following precipitation of the beads and re-suspension, the samples were analyzed by Western blotting with anti-V5 antibody. […] Data represent the average of 3 experiments (±s.d.). […] Data represent the average of 3 experiments (±s.d.). […] Data represent the average of 3 experiments (±s.d.). FIG. 3E NIH 3T3 cells transiently expressing Dbl were assayed for focus formation in the presence of 10 μM 968 alone or together with 7 mM dimethyl α-ketoglutarate. […] 100%=680 nM glutamine hydrolyzed per minute per 10^5 cells. Data are the average of 3 experiments (±s.d.). […] 100%=750 nM glutamine hydrolyzed per minute per 10^5 cells. Data represent the average of 3 experiments (±s.d.).\nThe activity of the E. coli-expressed recombinant mouse ortholog of human GAC were assayed in the presence of 0 ([…]), 10 (∇) or 20 (▪) μM 968 and inorganic phosphate in the form of dipotassium hydrogen phosphate. […] The data are plotted as GA activity as function of varying concentrations of glutamine or inorganic phosphate. The data are the average of 3 experiments and are plotted as mean±SEM.\nGlutaminase activity assays were performed on recombinant enzyme as previously described (Kenny et al., “Bacterial Expression, Purification and Characterization of Rat Kidney-Type Mitochondrial Glutaminase,” Protein Expr. Purif. 31:140-148 (2003), which is hereby incorporated by reference in its entirety). A plasmid encoding mouse GAC (residues 128-603) was cloned into the pET28a vector and the protein was expressed with an N-terminal histidine (His)-tag. The tag was cleaved using thrombin and the protein was further purified by anion-exchange and gel-filtration chromatography. […] The reaction mixture was incubated at room temperature for 45 minutes and the absorbance at 340 nm was recorded for each sample against a water blank. The absorbance of the sample with just the cocktail mixture was subtracted from each reading to calculate the activity of the enzyme."}}, "note": "“Also recorded” adds a separate entry of the source.", "data": [{"compound": "CC1(C)CC(=O)C2=C(C1)c1c(ccc3ccccc13)NC2c1cccc(Br)c1", "note": "(centres unmarked) [Compound 335]", "values": [{"measurement": "blocking of Dbl-induced transformation", "setting": "[1]", "value": "little or no inhibition; also recorded: less effective at blocking Dbl-transformation"}, {"measurement": "inhibition of enzymatic activity of purified mouse GAC", "setting": "[2]", "value": "little ability to inhibit enzyme activity"}]}]}
